Assay results taken from patent publication EP4610269A1, “UROKINASE PLASMINOGEN ACTIVATOR SURFACE RECEPTOR (UPAR) LIGANDS FOR DIAGNOSTIC OR THERAPEUTIC USE” (3B Pharmaceuticals GmbH, priority 2024, dated 2025).
Where a SMILES comes first, the peptide text is derived from it. Bridges are numbered along the chain shown (N, C = ends). Side-chain parts run from the residue outwards. [ ]: non-standard residue; d: D form. The star is where a group is joined. X4 = C[N+](C)(CCCC[C@H](NC(=O)CN1CCN(CC(=O)O)CCN(CC(=O)O)CCN(CC(=O)O)CC1)C(=O)*)CCCS(=O)(=O)[O-]; DOTA = O=C(O)CN1CCN(CC(=O)O)CCN(CC(=O)*)CCN(CC(=O)O)CC1; Pro(cis-4-F) = O=C(O)[C@@H]1C[C@H](F)CN1; mTyr = N[C@@H](Cc1cccc(O)c1)C(=O)O; Hyp = O=C(O)[C@@H]1C[C@@H](O)CN1; αMeF = C[C@](N)(Cc1ccccc1)C(=O)O; Pentanoyl(4-Me) = CC(C)CCC(=O)*; Cit = NC(=O)NCCC[C@H](N)C(=O)O; Aic = NC1(C(=O)O)Cc2ccccc2C1; Butoxycarbonyl = CCCCOC(=O)*; Nle = CCCC[C@H](N)C(=O)O; Orn = NCCC[C@H](N)C(=O)O; Nva = CCC[C@H](N)C(=O)O; Pentanoyl = CCCCC(=O)*; Aib = CC(C)(N)C(=O)O

Tests used:
human uPAR (uPAR-Fc) = target: T1, human uPAR (uPAR-Fc) (Homo sapiens, UniProt Q03405); experiment: Surface plasmon resonance (SPR) assay, single cycle kinetics; assay type: binding; details: pKD category for uPAR SPR activity assay; uPAR-Fc on Protein A-Chip, single cycle kinetics, 25°C; read-out: pKD CAT (converted)
T1 construct: comprising amino acids Leu23-Arg303 according to UniProt entry Q03405.1; purchased R&D Systems 10378-UK-100
Summary of the method: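 uPAR-Fc (Leu23-Arg303 extracellular domains, human IgG1 Fc) captured on Protein A chip to ~2000 RU; single-cycle kinetics at 25°C in HEPES running buffer pH 7.4 with 0.1% DMSO. KD from double-referenced sensorgrams fitted to 1:1 Langmuir model, reported as pKD.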

[1] = target: T2, uPAR-expressing HEC-265 human endometrial adenocarcinoma cells (Homo sapiens, UniProt Q03405); experiment: Competitive FACS binding assay; details: pIC50 category of FACS binding
T2 construct: Cell surface uPAR-expressing HEC-265 human endometrial adenocarcinoma cells; host or cells: HEC-265
Summary of the method: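 Competitive displacement of a 10 nM biotinylated peptide from HEC-265 cells (1 h, 4 °C, PBS/1% BSA), detected via APC-streptavidin by flow cytometry. pIC50 from four-parameter logistic fit of median fluorescence versus concentration.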

T2 sequence (Q03405 23-335): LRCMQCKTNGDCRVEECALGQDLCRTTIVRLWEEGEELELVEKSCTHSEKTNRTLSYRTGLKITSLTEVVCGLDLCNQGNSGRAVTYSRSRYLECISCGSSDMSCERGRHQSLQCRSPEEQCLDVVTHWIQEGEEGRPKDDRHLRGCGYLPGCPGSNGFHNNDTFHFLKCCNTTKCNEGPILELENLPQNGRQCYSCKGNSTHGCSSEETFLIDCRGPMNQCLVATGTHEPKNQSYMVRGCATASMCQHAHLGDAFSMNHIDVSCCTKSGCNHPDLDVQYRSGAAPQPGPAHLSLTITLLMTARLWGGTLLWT
T1 sequence (Q03405 23-303): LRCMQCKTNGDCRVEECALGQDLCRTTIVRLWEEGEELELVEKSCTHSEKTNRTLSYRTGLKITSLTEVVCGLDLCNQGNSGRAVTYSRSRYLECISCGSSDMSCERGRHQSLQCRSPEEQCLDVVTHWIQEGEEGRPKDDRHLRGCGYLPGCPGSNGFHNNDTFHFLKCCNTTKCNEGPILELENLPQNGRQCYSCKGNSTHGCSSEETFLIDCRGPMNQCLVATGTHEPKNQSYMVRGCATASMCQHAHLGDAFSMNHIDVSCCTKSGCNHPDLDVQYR

Structure (SMILES)	Kd (human uPAR (uPAR-Fc)) [µM]	IC50 [1] [µM]
CC[C@H](C)[C@@H]1NC(=O)[C@@H](C)NC(=O)[C@@H]2CCCN2C(=O)[C@H](Cc2ccccc2)NC(=O)[C@H](Cc2ccc(O)cc2)NC(=O)[C@H](CCCCNC(C)=O)NC(=O)[C@H](CCCNC(N)=O)NC(=O)[C@@H](NC(=O)CCC(C)C)CSSC[C@@H](C(N)=O)NC(=O)[C@H](CC(C)C)NC1=O [UPAR-413, iHex-[Cys-Cit-Lys(Ac)-Tyr-Phe-Pro-ala-Ile-Leu-Cys]-NH2] ({Pentanoyl(4-Me)}-C[Cit]K(Ac)YFP[dA]ILC-NH2; disulfide 1-10)	< 0.00158	≤ 0.01
CC[C@H](C)[C@@H]1NC(=O)[C@H](CCCCNC(=O)CN2CCN(CC(=O)O)CCN(CC(=O)O)CCN(CC(=O)O)CC2)NC(=O)[C@@H]2CCCN2C(=O)[C@H](Cc2ccccc2)NC(=O)[C@H](Cc2ccc(O)cc2)NC(=O)[C@H](CCC(N)=O)NC(=O)[C@@H](C)NC(=O)[C@@H](NC(=O)CCC(C)C)CSSC[C@@H](C(N)=O)NC(=O)[C@H](CC(C)C)NC1=O [UPAR-414, iHex-[Cys-ala-Gln-Tyr-Phe-Pro-Lys(DOTA)-Ile-Leu-Cys]-NH2] ({Pentanoyl(4-Me)}-C[dA]QYFPK(DOTA)ILC-NH2; disulfide 1-10)	0.01 to 0.1	0.0126 to 0.0316
CCCCOC(=O)N[C@H]1CSSC[C@@H](C(N)=O)NC(=O)[C@H](CCC)NC(=O)[C@H]([C@@H](C)CC)NC(=O)[C@@H]2C[C@@H](O)CN2C(=O)[C@@H]2C[C@H](F)CN2C(=O)[C@H](Cc2ccccc2)NC(=O)[C@H](Cc2cccc(O)c2)NC(=O)[C@H](CCCNC(=O)CN2CCN(CC(=O)O)CCN(CC(=O)O)CCN(CC(=O)O)CC2)NC(=O)[C@H]([C@@H](C)O)NC1=O [UPAR-415, Butoc-[Cys-Thr-Orn(DOTA)-My-Phe-4Cfp-Hyp-Ile-Nva-Cys]-NH2] (Butoxycarbonyl-CT[Orn](DOTA)[mTyr]F[Pro(cis-4-F)][Hyp]I[Nva]C-NH2; disulfide 1-10)	< 0.00158	≤ 0.01
CCCCC(=O)N[C@H]1CSSC[C@@H](C(N)=O)NC(=O)[C@H](CCC)NC(=O)[C@H]([C@@H](C)CC)NC(=O)[C@@H]2C[C@@H](O)CN2C(=O)[C@@H]2CCCN2C(=O)[C@](C)(Cc2ccccc2)NC(=O)[C@H](Cc2ccc(O)cc2)NC(=O)[C@H](CCCCNC(=O)CN2CCN(CC(=O)O)CCN(CC(=O)O)CCN(CC(=O)O)CC2)NC(=O)[C@H](CCCNC(N)=O)NC1=O [UPAR-416, Pent-[Cys-Cit-Lys(DOTA)-Tyr-Amf-Pro-Hyp-Ile-Nva-Cys]-NH2] (Pentanoyl-C[Cit]K(DOTA)Y[αMeF]P[Hyp]I[Nva]C-NH2; disulfide 1-10)	> 0.1	≥ 0.126
CCCCC(=O)N[C@H]1CSSC[C@@H](C(N)=O)NC(=O)[C@H](CCC)NC(=O)[C@H]([C@@H](C)CC)NC(=O)[C@@H]2C[C@@H](O)CN2C(=O)[C@@H]2CCCN2C(=O)C2(Cc3ccccc3C2)NC(=O)[C@H](Cc2ccc(O)cc2)NC(=O)[C@H](CCCCNC(=O)CN2CCN(CC(=O)O)CCN(CC(=O)O)CCN(CC(=O)O)CC2)NC(=O)[C@H](CCCNC(N)=O)NC1=O [UPAR-417, Pent-[Cys-Cit-Lys(DOTA)-Tyr-Aic-Pro-Hyp-Ile-Nva-Cys]-NH2] (Pentanoyl-C[Cit]K(DOTA)Y[Aic]P[Hyp]I[Nva]C-NH2; disulfide 1-10)	> 0.1	≥ 0.126
CCCCC(=O)N[C@H]1CSSC[C@@H](C(N)=O)NC(=O)[C@H](CCC)NC(=O)[C@H]([C@@H](C)CC)NC(=O)[C@@H]2C[C@@H](O)CN2C(=O)C(C)(C)NC(=O)[C@H](Cc2ccccc2)NC(=O)[C@H](Cc2ccc(O)cc2)NC(=O)[C@H](CCCCNC(=O)CN2CCN(CC(=O)O)CCN(CC(=O)O)CCN(CC(=O)O)CC2)NC(=O)[C@H]([C@@H](C)O)NC1=O [UPAR-419, Pent-[Cys-Thr-Lys(DOTA)-Tyr-Phe-Aib-Hyp-Ile-Nva-Cys]-NH2] (Pentanoyl-CTK(DOTA)YF[Aib][Hyp]I[Nva]C-NH2; disulfide 1-10)	0.01 to 0.1	0.0126 to 0.0316
CCCC[C@@H]1NC(=O)[C@H](CCCNC(=N)N)NC(=O)[C@@H](NC(=O)[C@H](CC(C)C)NC(=O)[C@H](CC(=O)O)NC(C)=O)CSSC[C@@H](C(N)=O)NC(=O)[C@H](CC(C)C)NC(=O)[C@@H](CC(C)C)NC(=O)[C@H](C)NC(=O)[C@@H]2CCCN2C(=O)[C@H](Cc2ccccc2)NC(=O)[C@H](Cc2ccc(O)cc2)NC1=O [UPAR-420, Ac-Asp-Leu-[Cys-Arg-Nle-Tyr-Phe-Pro-Ala-leu-Leu-Cys]-NH2] (Ac-DLCR[Nle]YFPA[dL]LC-NH2; disulfide 3-12)	0.01 to 0.1	0.0398 to 0.1
CCCCOC(=O)N[C@H]1CSSC[C@@H](C(N)=O)NC(=O)[C@H](CCC)NC(=O)[C@H]([C@@H](C)CC)NC(=O)[C@@H]2C[C@@H](O)CN2C(=O)[C@@H]2C[C@H](F)CN2C(=O)[C@H](Cc2ccccc2)NC(=O)[C@H](Cc2ccc(O)cc2)NC(=O)[C@H](CCCCNC(=O)[C@H](CCCC[N+](C)(C)CCCS(=O)(=O)[O-])NC(=O)CN2CCN(CC(=O)O)CCN(CC(=O)O)CCN(CC(=O)O)CC2)NC(=O)[C@H]([C@@H](C)O)NC1=O [UPAR-422, Butoc-[Cys-Thr-Lys(DOTA-Kzw)-Tyr-Phe-4Cfp-Hyp-Ile-Nva-Cys]-NHz] (Butoxycarbonyl-CTK(X4)YF[Pro(cis-4-F)][Hyp]I[Nva]C-NH2; disulfide 1-10)	< 0.00158	≤ 0.01
CC[C@H](C)[C@@H]1NC(=O)[C@H](CCCNC(=N)N)NC(=O)[C@@H]2CCCN2C(=O)[C@H](Cc2ccccc2)NC(=O)[C@H](Cc2ccc(O)cc2)NC(=O)[C@H](CCCCNC(=O)CN2CCN(CC(=O)O)CCN(CC(=O)O)CCN(CC(=O)O)CC2)NC(=O)[C@H](CCCNC(N)=O)NC(=O)[C@@H](NC(=O)[C@H](CC(C)C)NC(=O)[C@H](CC(=O)O)NC(C)=O)CSSC[C@@H](C(N)=O)NC(=O)[C@H](CC(C)C)NC1=O [UPAR-423, Ac-Asp-Leu-[Cys-Cit-Lys(DOTA)-Tyr-Phe-Pro-Arg-Ile-Leu-Cys]-NH2] (Ac-DLC[Cit]K(DOTA)YFPRILC-NH2; disulfide 3-12)	< 0.00158	≤ 0.01
CCCCOC(=O)N[C@H]1CSSC[C@@H](C(N)=O)NC(=O)[C@H](CCC)NC(=O)[C@H]([C@@H](C)CC)NC(=O)[C@@H]2C[C@@H](O)CN2C(=O)[C@@H]2C[C@H](F)CN2C(=O)[C@H](Cc2ccccc2)NC(=O)[C@H](Cc2ccc(O)cc2)NC(=O)[C@H](CCCCNC(=O)[C@@H](CC(=O)O)NC(=O)CN2CCN(CC(=O)O)CCN(CC(=O)O)CCN(CC(=O)O)CC2)NC(=O)[C@H]([C@@H](C)O)NC1=O [UPAR-424, Butoc-[Cys-Thr-Lys(DOTA-asp)-Tyr-Phe-4Cfp-Hyp-Ile-Nva-Cys]-NHz] (Butoxycarbonyl-CTK([dD-DOTA])YF[Pro(cis-4-F)][Hyp]I[Nva]C-NH2; disulfide 1-10)	< 0.00158	≤ 0.01
CCCCC(=O)N[C@H]1CSSC[C@@H](C(N)=O)NC(=O)[C@H](CCC)NC(=O)[C@H]([C@@H](C)CC)NC(=O)CNC(=O)[C@@H]2CCCN2C(=O)[C@H](Cc2ccccc2)NC(=O)[C@H](Cc2ccc(O)cc2)NC(=O)[C@H](CCCCNC(=O)CN2CCN(CC(=O)O)CCN(CC(=O)O)CCN(CC(=O)O)CC2)NC(=O)[C@H](CCCNC(N)=O)NC1=O [UPAR-425, Pent-[Cys-Cit-Lys(DOTA)-Tyr-Phe-Pro-Gly-Ile-Nva-Cys]-NH2] (Pentanoyl-C[Cit]K(DOTA)YFPGI[Nva]C-NH2; disulfide 1-10)	< 0.00158	≤ 0.01
